These are literature values, as cited in patent US20110070305A1, “SUSTAINED RELEASE PHARMACEUTICAL COMPOSITION CONTAINING MEBICAR” (ALPHARX INC., priority 2009, published 2011).

The conditions of data set [1]: orally administered.

Consider `CN1C(=O)N(C)C2C1N(C)C(=O)N2C` (stereo not drawn) [Mebicar], for which the “solubility in alcohol and most polar organic solvents” value (alcohol and most polar organic solvents) is given as “soluble”. Besides, for the setting “water, ambient temperature”, the solubility in water entry was “about 50%”. Also, the half-life entry in data set [1] is recorded as “approximately 3 hours”.
